Values quoted from earlier work in US9119796B2, “Razor comprising a molded shaving aid composition comprising a pyrithione source” (The Gillette Company, priority 2011, dated 2015).

Tested on: microbials
Conditions: soap bar composition with platelet ZPT compared with particulate ZPT (median about 0.70 microns, mean about 0.75 microns, thickness less than 0.6 microns); FIG. 1 of U.S. Ser. No. 13/036,889

[O-]n1ccccc1=S.[O-]n1ccccc1=S.[Zn+2] [platelet ZPT, zinc salt of 1-hydroxy-2-pyridinethione]
number of colony forming units (CFUs) that form on a substrate: reduces the number of colony forming units (CFUs)
